Values joined by “and” are separate entries in the source; they are usually repeats but may differ in a detail not shown here. Equal values may be shown once. One block for each compound: values may come before it.
System: 889142-216-R-J1-PDC complex spheroid viability
Assay: Anticancer human tumor 889142-216-R-J1-PDC patient-derived bladder carcinoma cell line growth inhibition [POLQ]
Conditions: for viability, T/C: stronger effect = lower value
Method: Multicellular complex tumor spheroid response to Polymerase (POL) inhibitors (novobiocin, ART-558, RP6685) in combination with a variety of drugs and investigational agents in selected tumor cell lines
The POL inhibitors (novobiocin, ART-558, and RP6685) were evaluated both individually and in combination with standard of care and investigational anticancer small molecules within a complex spheroid model of solid tumors. . Complex spheroids include a stromal component modeled by human endothelial cells (HUVEC) and fibroblasts modeled by human mesenchymal stem cells (MSCs). The concentration ranges selected for each drug and investigational agent were based upon clinically achievable concentrations if the clinical Cmax of the agent was known.
Compounds. The drugs and investigational agents: novobiocin (NSC847541), ART-558 (NSC835418), RP-6685 (NSC848927), peposertib (NSC802822), ceralasertib (NSC780249), elimusertib (NSC800525), camonsertib (NSC841442), AZD-1390 (NSC803789), olaparib (NSC753686), talazoparib (NSC767125), rucaparib (NSC756644), sotorasib (NSC818433), MRTX-1133 (NSC836407), SN-38 (NSC673596), topotecan (NSC609699), epotoside (NSC141540), doxorubicin (NSC123127), gemcitabine (NSC613327), 5-fluorouracil (NSC19893), paclitaxel (NSC125973), vemurafenib (NSC761431), MSA-2 (NSC828583), SN-011 (NSC837082), adavosertib (NSC754352), prexasertib (NSC758257), carboplatin (NSC241240) and oxaliplatin (NSC266046), were obtained from the National Cancer Institute (NCI) Developmental Therapeutics Program Chemical Repository (21). The FDA-approved anticancer drug set is available from the Developmental Therapeutics Program at https://dtp.cancer.gov/organization/dscb/obtaining/. […] The stock solutions were prepared in dimethyl sulfoxide (DMSO, Sigma-Aldrich, St. Louis, MO, cat. D2650), except for the platinum compounds which were prepared in saline (Quality Biological, Gaithersburg, MD, cat. 114-055-101), at 800-fold the tested concentration and stored at -70 degrees C prior to their use. All drugs and investigational agents were tested over a range starting from a high concentration at or near the clinical Cmax and decreasing in half-log increments. If the clinical Cmax for an agent had not been determined, the highest concentration tested was 10 microM, except for SN-38, which was tested at a high concentration of 1 microM.
Cell Culture. All cells were maintained in an incubator at 37 degrees C and 5% CO2 with 95% humidity. The PDC lines were cultured according to standard operating procedures established by the NCI PDMR (https://pdmr.cancer.gov). Table 3 of the manuscript, lists the cell lines along with the number of the three cell types plated to form the mct-spheroids and media for tumor cell growth. After thawing, all PDC lines, except 997537-175-T-J1-PDC and 415267-285-R-J2-PDC, were cultured in Matrigel-coated flasks prepared with a working solution of 1X Ham's F-12 nutrient mix, without supplementation (Thermo Fisher Scientific, cat. 11765054), 100 U/mL penicillin-streptomycin (Thermo Fisher Scientific, cat. 15140122), and 2.5% Matrigel (Corning Inc., Corning, NY, cat. 354248) for the first three passages. The two PDC lines 997537-175-T-J1-PDC and 415267-285-R-J2-PDC were cultured on uncoated flasks. The 857933-349-R-J2-PDC line was cultured in 6C/Colon 1B media containing advanced DMEM/F-12 (Thermo Fisher Scientific, cat. 12634028), 10 mM HEPES (Thermo Fisher Scientific, cat. 15630080), 1X GlutaMAX supplement (Thermo Fisher Scientific, cat. 35050061), 0.1 mg/mL primocin (InvivoGen, San Diego, CA, cat. ant-pm-2), 10% defined fetal bovine serum, heat inactivated (HyClone Laboratories Inc., Logan, UT, cat. SH30070.03HI), 50% L-WRN conditioned media (ATCC, cat. CRL-3276), 1.25 mM N-Acetyl-L-cysteine (Sigma-Aldrich, cat. A9165), 10 mM nicotinamide (Sigma-Aldrich, cat. N0636), 1X B-27 supplement (Thermo Fisher Scientific, cat. 17504044), 1X N-2 supplement (Thermo Fisher Scientific, cat. […]

[1] = curve of first compound, second compound 0.0316 µM
[2] = curve of first compound, second compound 0.1 µM
[3] = curve of first compound, second compound 0.316 µM
[4] = curve of first compound, second compound 1 µM
[5] = curve of first compound, second compound 3.16 µM
[6] = curve of first compound, second compound 10 µM
[7] = second compound 0.0316 µM, first compound 0.0316 µM
[8] = second compound 0.0316 µM, first compound 0.1 µM
[9] = second compound 0.0316 µM, first compound 0.316 µM
[10] = second compound 0.0316 µM, first compound 1 µM
[11] = second compound 0.0316 µM, first compound 3.16 µM
[12] = second compound 0.0316 µM, first compound 10 µM
[13] = second compound 0.1 µM, first compound 0.0316 µM
[14] = second compound 0.1 µM, first compound 0.1 µM
[15] = second compound 0.1 µM, first compound 0.316 µM
[16] = second compound 0.1 µM, first compound 1 µM
[17] = second compound 0.1 µM, first compound 3.16 µM
[18] = second compound 0.1 µM, first compound 10 µM
[19] = second compound 0.316 µM, first compound 0.0316 µM
[20] = second compound 0.316 µM, first compound 0.1 µM
[21] = second compound 0.316 µM, first compound 0.316 µM
[22] = second compound 0.316 µM, first compound 1 µM
[23] = second compound 0.316 µM, first compound 3.16 µM
[24] = second compound 0.316 µM, first compound 10 µM
[25] = second compound 1 µM, first compound 0.0316 µM
[26] = second compound 1 µM, first compound 0.1 µM
[27] = second compound 1 µM, first compound 0.316 µM
[28] = second compound 1 µM, first compound 1 µM
[29] = second compound 1 µM, first compound 3.16 µM
[30] = second compound 1 µM, first compound 10 µM
[31] = second compound 3.16 µM, first compound 0.0316 µM
[32] = second compound 3.16 µM, first compound 0.1 µM
[33] = second compound 3.16 µM, first compound 0.316 µM
[34] = second compound 3.16 µM, first compound 1 µM
[35] = second compound 3.16 µM, first compound 3.16 µM
[36] = second compound 3.16 µM, first compound 10 µM
[37] = second compound 10 µM, first compound 0.0316 µM
[38] = second compound 10 µM, first compound 0.1 µM
[39] = second compound 10 µM, first compound 0.316 µM
[40] = second compound 10 µM, first compound 1 µM
[41] = second compound 10 µM, first compound 3.16 µM
[42] = second compound 10 µM, first compound 10 µM
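Note: spheroids exposed to compounds for seven days.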
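Throughout, for viability, T/C: 100% = DMSO vehicle control viability.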

Compound: CC(C)n1c(=O)n(C)c2cnc3cc(F)c(-c4ccc(OCCCN5CCCCC5)nc4)cc3c21 + COC1C(OC(N)=O)C(O)C(Oc2ccc3c(O)c(NC(=O)c4ccc(O)c(CC=C(C)C)c4)c(=O)oc3c2C)OC1(C)C
IC50 [1]: > 10000 nM | IC50 [2]: 6090 nM | IC50 [3]: > 10000 nM | IC50 [4]: > 10000 nM | IC50 [5]: 8690 nM | IC50 [6]: > 10000 nM | viability, T/C [7]: 91.2% | viability, T/C [8]: 86.3% | viability, T/C [9]: 78.3% | viability, T/C [10]: 86.5% | viability, T/C [11]: 54.6% | viability, T/C [12]: 52.8% | viability, T/C [13]: 88.6% | viability, T/C [14]: 105% | viability, T/C [15]: 81.7% | viability, T/C [16]: 85.8% | viability, T/C [17]: 60.4% | viability, T/C [18]: 41.5% | viability, T/C [19]: 105% | viability, T/C [20]: 71.1% | viability, T/C [21]: 85.8% | viability, T/C [22]: 76.8% | viability, T/C [23]: 58.9% | viability, T/C [24]: 56.8% | viability, T/C [25]: 113% | viability, T/C [26]: 86.2% | viability, T/C [27]: 80.4% | viability, T/C [28]: 71.2% | viability, T/C [29]: 67.1% | viability, T/C [30]: 52.2% | viability, T/C [31]: 92.4% | viability, T/C [32]: 106% | viability, T/C [33]: 88.7% | viability, T/C [34]: 71.4% | viability, T/C [35]: 61.6% | viability, T/C [36]: 46.9% | viability, T/C [37]: 94.4% | viability, T/C [38]: 92.8% | viability, T/C [39]: 81.3% | viability, T/C [40]: 88% | viability, T/C [41]: 65.9% | viability, T/C [42]: 53.7%

IC50 (compound alone, run of 01/19/2024): > 10000 nM
Compound: Nc1ccc(C#CCN(C(=O)Cc2ncc(C(F)(F)F)cc2C(F)(F)F)c2ccc(F)cc2)nn1
viability, T/C (compound 0.1 µM): 95.3% [middle of 13 runs] | viability, T/C (compound 10 µM): 102% [middle of 13 runs]

Compound: COc1cccc2c1C(=O)c1c(O)c3c(c(O)c1C2=O)CC(O)(C(=O)CO)CC3OC1CC(N)C(O)C(C)O1 (stereo not given) + Cc1cccc(N(C)C(=O)C2C(O)CCN2c2nc(C)cc(C(F)(F)F)c2C#N)c1
IC50 [1]: 244 nM | IC50 [2]: 148 nM | IC50 [3]: 150 nM | IC50 [4]: 196 nM | IC50 [5]: 183 nM | IC50 [6]: 135 nM | viability, T/C [7]: 70.9% | viability, T/C [8]: 69.3% | viability, T/C [9]: 44.2% | viability, T/C [10]: 2.17% | viability, T/C [11]: 0.48% | viability, T/C [12]: 1.56% | viability, T/C [13]: 77% | viability, T/C [14]: 56.6% | viability, T/C [15]: 34.7% | viability, T/C [16]: 2.14% | viability, T/C [17]: 1.04% | viability, T/C [18]: 1.26% | viability, T/C [19]: 57.3% | viability, T/C [20]: 59.7% | viability, T/C [21]: 35.2% | viability, T/C [22]: 4.5% | viability, T/C [23]: 0.81% | viability, T/C [24]: 0.94% | viability, T/C [25]: 58.9% | viability, T/C [26]: 78% | viability, T/C [27]: 37% | viability, T/C [28]: 2.29% | viability, T/C [29]: 1.29% | viability, T/C [30]: 1.22% | viability, T/C [31]: 61.8% | viability, T/C [32]: 69% | viability, T/C [33]: 36.2% | viability, T/C [34]: 1.55% | viability, T/C [35]: 1.05% | viability, T/C [36]: 0.85% | viability, T/C [37]: 55.7% | viability, T/C [38]: 62.4% | viability, T/C [39]: 24.7% | viability, T/C [40]: 0.91% | viability, T/C [41]: 0.87% | viability, T/C [42]: 1.31%

Compound: COc1cccc(OCCCN)c1-c1cc(Nc2cnc(C#N)cn2)n[nH]1
viability, T/C (compound 0.00316 µM): 93.9% and 84.5% and 84.6% | viability, T/C (compound 0.01 µM): 53.2% and 89.7% and 71.7% | viability, T/C (compound 0.0316 µM): 42.5% and 62.6% and 50.3% | viability, T/C (compound 0.1 µM): 34.7% and 51.5% and 47.2% | viability, T/C (compound 0.316 µM): 37.9% and 47.7% and 42.3% | viability, T/C (compound 1 µM): 34.4% and 42.8% and 40.6% | IC50 (curve of compound): 14.1 nM and 81.8 nM and 41 nM

Compound: COc1cc(C2c3cc4c(cc3C(OC3OC5COC(C)OC5C(O)C3O)C3COC(=O)C23)OCO4)cc(OC)c1O (stereo not given)
viability, T/C (compound 0.0316 µM): 93.9% and 87.6% and 89.9% | viability, T/C (compound 0.1 µM): 82.4% and 88.4% and 76.9% | viability, T/C (compound 0.316 µM): 77.6% and 73% and 63.3% | viability, T/C (compound 1 µM): 58.1% and 80.3% and 53.2% | viability, T/C (compound 3.16 µM): 63.4% and 68.3% and 65.3% | viability, T/C (compound 10 µM): 54.3% and 62.4% and 58.1% | IC50 (curve of compound): > 10000 nM

Compound: COc1cccc2c1C(=O)c1c(O)c3c(c(O)c1C2=O)CC(O)(C(=O)CO)CC3OC1CC(N)C(O)C(C)O1 (stereo not given)
viability, T/C (compound 0.0316 µM): 59.4% and 71.1% and 60.1% | viability, T/C (compound 0.1 µM): 61.1% and 79% and 56.2% | viability, T/C (compound 0.316 µM): 46.8% and 46.4% and 36.7% | viability, T/C (compound 1 µM): 2.75% and 11.6% and 1.69% | viability, T/C (compound 3.16 µM): 0.71% and 1.11% and 0.66% | viability, T/C (compound 10 µM): 1% and 1.39% and 1.05% | IC50 (curve of compound): 241 nM and 290 nM and 153 nM

Compound: CC1COCCN1c1cc(C2(S(C)(=N)=O)CC2)nc(-c2ccnc3[nH]ccc23)n1 (stereo not given)
viability, T/C (compound 0.0316 µM): 125% and 90% and 99.5% | viability, T/C (compound 0.1 µM): 92.6% and 98.3% and 102% | viability, T/C (compound 0.316 µM): 98.3% and 75.8% and 74.6% | viability, T/C (compound 1 µM): 53.5% and 71.3% and 53.6% | viability, T/C (compound 3.16 µM): 51.8% and 48.8% and 44.5% | viability, T/C (compound 10 µM): 45.6% and 58% and 46.8% | IC50 (curve of compound): 3750 nM and > 10000 nM and 1280 nM

From PubChem BioAssay AID1963831 (Molecular Pharmacology Branch, DTP, NCI, 2024)
